pEC50: −log10 of the molar value. Read-outs that look alike come from different tables or passages of the source.
What was measured:
HIV-1 = test: microbe, parasite or virus in culture; conditions: read-out: HIV1 CEM: EC50 for inhibition of HIV-1 in CEM cells
Method: (§1) Cells were infected with HIV-1 as previously described [Balzarini et al. AIDS (1991), 5, 21–28]. Briefly, 5×10^5 cells per milliliter were infected with HIV-1 or HIV-2 at 100 CCID50 (50% cell culture infective dose) per milliliter of cell suspension. Then 100 μL of the infected cell suspension was transferred to microtiter plate wells and mixed with 100 μL of the appropriate dilutions of the test compounds. After 4 days giant cell formation was recorded microscopically in the HIV-infected cell cultures [CEM], and after 5 days the number of viable cells was determined by trypan blue staining of the HIV-infected cell cultures [MT4].
(§2) The data columns are, in order: • HIV1 MT4: EC50 in μM for inhibition of HIV-1 in MT4 cells. • HIV2 MT4: EC50 in μM for inhibition of HIV-2 in MT4 cells. • CC50 MT4: CC50 in μM for toxicity to MT-4 cells. • HIV1 CEM: EC50 in μM for inhibition of HIV-1 in CEM cells. • HIV2 CEM: EC50 in μM for inhibition of HIV-2 in CEM cells. • HIV2 CEM-TK-: EC50 in μM for inhibition of HIV-2 in CEM/TK^− cells. • CC50 CEM: CC50 in μM for toxicity to CEM cells. • EC50 MSV: EC50 in μM for inhibition of MSV • MCC MSV: Minimum cytotoxic concentration in MSV assay

HIV-2 [1] = test: Inhibition of HIV-2 in CEM/TK- cells; format: cell-based
Method: as §1, §2

HIV-2 [2] = test: Inhibition of HIV-2 in CEM cells (giant cell formation); format: cell-based
Method: as §1, §2

III-B strain of HIV-1 = test: microbe, parasite or virus in culture; format: cell-based
Method: (§3) C8166 cells. Cells were grown in RPMI 1640 with 10% calf serum. 4×10^4 cells per microtiter plate well were mixed with 5-fold dilutions of compound prior to addition of 10 CCID50 units of III-B strain of HIV-1 and incubated for 5–7 days (Betbeder et al. Antiviral Chem. Chemother. 1, 241–247, 1990). Formation of syncytia was examined from 2 days post-infection. Culture fluid was collected at 5–7 days and gp120 antigen production measured by ELISA (Mahmood and Hay, J. Immunol. Meth., 151, 9–13, 1992). […] Cell viability of infected and uninfected cells were assessed by the MTT-Formazen method (Pauwels et al. J. Virol. Meth. 20, 309–321, 1988).
(§4) Each assay was carried out in duplicate, on at least two separate occasions, and data quoted are the average of each separate assay.

C8166 cells = test: Toxicity in C8166 cells (MTT-Formazen); format: cell-based; conditions: Table 3
Method: as §3, §4

CEM cells = test: Toxicity to CEM cells; format: cell-based, human
Method: as §1, §2

MSV = test: Inhibition of MSV (in vitro); format: cell-based, Moloney Sarcoma Virus
Text: as §2

[3] = Minimum cytotoxic concentration in MSV assay; format: cell-based
Text: as §2, with “CEM/TK^-” for “CEM/TK^−”, “[…]:” for “MSV • MCC MSV:”

[4] = Table 6, mean of two or more repeat experiments
[5] = HIV2, Table 2, read-out: EC50 CEM TK^−
[6] = Table 6, mean of two or more repeat experiments, read-out: HIV2 CEM-TK-: EC50 for inhibition of HIV-2 in CEM/TK^− cells
[7] = Table 6, mean of two or more repeat experiments, read-out: HIV2 CEM: EC50 for inhibition of HIV-2 in CEM cells
[8] = HIV1 in C8166 cells, Table 3, read-out: Activity EC50
[9] = CEM/TK- cells, HIV-2, read-out: HIV2 CEM-TK-: EC50 for inhibition of HIV-2 in CEM/TK- cells
[10] = CEM cells, HIV-2, read-out: HIV2 CEM: EC50 for inhibition of HIV-2 in CEM cells

Row | SMILES | pEC50 (HIV-1; [4]) | pEC50 (HIV-2 [1]; [6]) | pEC50 (HIV-2 [2]; [7]) | CC50 (CEM cells; [4]) | pEC50 (MSV; Table 6) | MCC MSV: Minimum cytotoxic concentration in MSV assay ([3]; Table 6) | further results
1 | Cc1cn(C2C=CC(COP(=O)(NC(C)C(=O)OCc3ccccc3)Oc3ccccc3)O2)c(=O)[nH]c1=O (stereo not shown) [Compound 730, 2′,3′-dideoxy-2′,3′-didehydrothymidine-5′-(phenyl N-benzyloxyalaninyl) phosphoramidate] | 7.80 | 7.22 | 7.80 |  |  |  | pEC50 (HIV-2 [1]; [5]): 7.22; pEC50 (HIV-2 [2]; [5]): 7.80; pEC50 (III-B strain of HIV-1; HIV1 in C8166, Table 2, read-out: EC50 C8166): 9.10; pEC50 (III-B strain of HIV-1; [8]): 9.10; CC50 (C8166 cells): 400 µM
2 | COC(=O)C(C)NP(=O)(OCC1C=CC(n2cc(C)c(=O)[nH]c2=O)O1)Oc1ccc(F)cc1 (stereo not shown) [Compound 327, 2′,3′-dideoxy-2′,3′-didehydrothymidine 5′-(p-fluorophenylmethoxyalaninyl) phosphoramidate] |  |  |  |  |  |  | Selectivity CC50/EC50 × 10^3 (III-B strain of HIV-1): 62.5 × 10^3; pEC50 (III-B strain of HIV-1; [8]): 8.49; CC50 (C8166 cells): 200 µM
3 | Cc1cn(C2C=CC(COP(=O)(N[C@@H](C)C(=O)OC3CCCCC3)Oc3ccccc3)O2)c(=O)[nH]c1=O (stereo partly shown) [Compound 892, 2′,3′-dideoxy-2′,3′-didehydrothymidine 5′-(phenyl N-cyclohexyloxyalaninyl) phosphoramidate] | 7.19 | 7.05 | 7.12 | 51.4 µM |  |  | Selectivity CC50/EC50 × 10^3 (III-B strain of HIV-1): 312 × 10^3; pEC50 (III-B strain of HIV-1; [8]): 8.80; CC50 (C8166 cells): 500 µM
4 | Cc1cn(C2C=CC(COP(=O)(NC(C)C(=O)OCc3ccccc3)Oc3ccc(Br)cc3Br)O2)c(=O)[nH]c1=O (stereo not shown) [Compound 868, 2′,3′-dideoxy-2′, 3′-didehydrothymidine-5′-(2,4-dibromophenyl N-benzylalaninyl) phosphoramidate] | 6.70 | 6.70 | 6.70 | 50 µM |  |  | Selectivity CC50/EC50 × 10^3 (III-B strain of HIV-1): 156 × 10^3; pEC50 (III-B strain of HIV-1; [8]): 8.49; CC50 (C8166 cells): 500 µM
5 | COC(=O)CC(NP(=O)(OCC1C=CC(n2cc(C)c(=O)[nH]c2=O)O1)Oc1ccccc1)C(=O)OC (stereo not shown) [Compound 1078] | 6.26 | 6.48 | 6.19 | 209 µM | 4.50 | >100 | 
6 | COC(=O)C(C)NP(=O)(OC[C@@H]1CC[C@H](n2cnc3c(N)ncnc32)O1)Oc1ccccc1 (stereo partly shown) [Compound 1093, 2′,3′-dideoxy Adenosine 5′-(phenylmethoxyalaninyl) phosphoramidate] |  |  |  |  |  |  | pEC50 (HIV-1; CEM cells, HIV-1): 7.80; pEC50 (HIV-2 [1]; [9]): 7.26; CC50 (CEM cells; CEM cells): 2.57 µM; pEC50 (MSV; MSV): 5.71; pEC50 (HIV-2 [2]; [10]): 7.46; MCC MSV: Minimum cytotoxic concentration in MSV assay ([3]; MSV assay): >20
7 | CCOC(=O)CN(C)P(=O)(OC[C@@H]1C=C[C@H](n2cc(C)c(=O)[nH]c2=O)O1)Oc1ccccc1 (stereo partly shown) [Compound 1133, 2′,3′-dideoxy-2′,3′-didehydrothymidine 5′-(phenylethoxysarcosinyl phosphate)] | 4.12 | < 3.60 | 4.06 | ≥ 250 µM | < 4.00 | >100 | 
8 | Cc1cn(C2C=CC(COP(=O)(O)NC(CCC(=O)O)C(=O)O)O2)c(=O)[nH]c1=O (stereo not shown) [Compound 1083] | 5.07 | < 3.60 | 5.26 | ≥ 250 µM | 4.26 | >100 | 
9 | COC(=O)C(C)NP(=O)(O)OCC1C=CC(n2cc(C)c(=O)[nH]c2=O)O1 (stereo not shown) [Compound 1129] | 5.70 | 4.30 | 5.35 | > 250 µM | 4.32 | >100 | 
10 | CSCC[C@H](NP(=O)(O)OC[C@@H]1C=C[C@H](n2cc(C)c(=O)[nH]c2=O)O1)C(=O)O [Compound 1156, 2′,3′-dideoxy-2′,3′-didehydrothymidine 5′-(methioninyl phosphate)] | 5.90 | 4.30 | 6.15 | > 250 µM | 4.79 | >100 | 
11 | Cc1cn(C2C=CC(COP(=O)(O)NC(CC(=O)O)C(=O)O)O2)c(=O)[nH]c1=O (stereo not shown) [Compound 1079] | 5.80 | 4.15 | 5.60 | ≥ 250 µM | 5.03 | >100 | 
12 | COP(=O)(NC(C)C(=O)OCc1ccccc1)OCC1C=CC(n2cc(C)c(=O)[nH]c2=O)O1 (stereo not shown) [Compound 1135] | 5.00 | 4.76 | 4.82 | > 250 µM | < 4.00 | >100 | 
13 | Cc1cn(C2C=CC(COP(=O)(O)NC(C)C(=O)OCc3ccccc3)O2)c(=O)[nH]c1=O (stereo not shown) [Compound 1137] | 6.02 | 5.10 | 5.80 | ≥ 250 µM | 4.80 | >100 | 
14 | CCOC(=O)COP(=O)(OCC1C=CC(n2cc(C)c(=O)[nH]c2=O)O1)Oc1ccccc1 (stereo not shown) [Compound 981] | 4.90 | 3.82 | 4.90 | ≥ 250 µM | < 4.00 | >100 | 
15 | COC(=O)COP(=O)(OCC1C=CC(n2cc(C)c(=O)[nH]c2=O)O1)Oc1ccccc1 (stereo not shown) [Compound 980] | 4.56 | < 3.60 | 4.30 | > 250 µM | < 4.00 | >100 | 
16 | COC(=O)C(OP(=O)(OCC1C=CC(n2cc(C)c(=O)[nH]c2=O)O1)Oc1ccccc1)c1ccccc1 (stereo not shown) [Compound 982] | 5.77 | 4.82 | 6.19 | 94 µM | 4.85 | >100 | 
17 | COC(=O)CCC(NP(=O)(OCC1C=CC(n2cc(C)c(=O)[nH]c2=O)O1)Oc1ccccc1)C(=O)OC (stereo not shown) [Compound 1081] | 5.10 | 4.80 | 5.27 | ≥ 250 µM | 4.05 | >100 | 
18 | Cc1cn(C2C=CC(COP(=O)(O)N[C@H](C)C(=O)O)O2)c(=O)[nH]c1=O (stereo partly shown) [Compound 1095] | 5.89 | 5.00 | 5.80 | > 250 µM | 6.38 | >100 | 
19 | Cc1cn(C2C=CC(COP(=O)(O)O)O2)c(=O)[nH]c1=O (stereo not shown) [Compound 1131] | 6.40 | 4.30 | 6.22 | ≥ 250 µM | 5.17 | >100 | 
20 | Nc1ncnc2c1ncn2C1CCC(CO)O1 (stereo not shown) [Cpd 1069] |  |  |  |  |  |  | pEC50 (HIV-1; CEM cells, HIV-1): 5.40; pEC50 (HIV-2 [1]; [9]): 4.76; CC50 (CEM cells; CEM cells): > 250 µM; pEC50 (MSV; MSV): 4.61; pEC50 (HIV-2 [2]; [10]): 5.10; MCC MSV: Minimum cytotoxic concentration in MSV assay ([3]; MSV assay): >100

Source: patent US7018989B2, “Chemical compounds” (University College Cardiff Consultants, LTD, priority 1995, dated 2006)
